One experiment concerns the target CDK4 (Homo sapiens (Human), UniProt P11802). Nature of the experiment: CDK4 protein kinase activity, Caliper mobility shift assay. To be noted: GST-CDK4(1-303 end), substrate Peptide FAM-P8, 28° C. for 3 h. The format is biochemical. On the procedure: (§1) activity assay: The CDK4 protein kinase activity was measured using the Caliper mobility shift assay (see J. Biomol. Screen, 2009, PP31). The test compound was dissolved in DMSO and diluted with a kinase buffer solution (20 mM HEPES-pH 7.5, 0.01% Triton X-100, 10 mM MgCl2, 2 mM DTT) and 5 μL of compound at 5-fold final concentration of reaction dissolved in 10% DMSO was added in a 384-well plate. The compound-free control well was 5 μL of 10% DMSO, and the no-activity control well was 5 μL of kinase buffer. 10 μL of a 2.5-fold diluted CDK4 enzyme solution (GST-CDK4(1-303 end)) was added and incubated at room temperature for 10 min, and then 10 μL of the 2.5-fold diluted substrate solution Peptide FAM-P8 was added. The reaction was stopped by adding 25 μL of stop solution after incubation at 28° C. for 3 h, and the conversion rate data was read on a Caliper EZ Reader II (Caliper Life Sciences) and the conversion rate was converted to inhibition rate data according to above method. Among them, the inhibition rate %=(max−conversion)/(max−min)×100%.

In the next experiment the target is CDK6 (Homo sapiens (Human), UniProt Q00534). Nature of the experiment: CDK6 protein kinase activity, Caliper mobility shift assay. To be noted: GST-CDK6(1-326 end), substrate Peptide FAM-P8, 28° C. for 3 h. The class given is biochemical. The procedure:
as §1, with “Activity Assay:” for “activity assay:”, “CDK6” for “CDK4”, “(GST-CDK6(1-326” for “(GST-CDK4(1-303”

Chain of CDK4 (P11802 whole entry): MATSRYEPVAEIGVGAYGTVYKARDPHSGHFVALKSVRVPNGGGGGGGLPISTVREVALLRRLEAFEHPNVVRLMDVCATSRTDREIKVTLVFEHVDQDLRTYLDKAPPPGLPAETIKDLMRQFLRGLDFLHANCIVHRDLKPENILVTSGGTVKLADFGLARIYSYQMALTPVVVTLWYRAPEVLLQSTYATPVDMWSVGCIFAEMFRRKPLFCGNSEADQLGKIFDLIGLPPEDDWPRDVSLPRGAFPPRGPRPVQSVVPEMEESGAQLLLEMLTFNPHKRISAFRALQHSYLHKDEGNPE
Chain of CDK4 (P30281 whole entry partner): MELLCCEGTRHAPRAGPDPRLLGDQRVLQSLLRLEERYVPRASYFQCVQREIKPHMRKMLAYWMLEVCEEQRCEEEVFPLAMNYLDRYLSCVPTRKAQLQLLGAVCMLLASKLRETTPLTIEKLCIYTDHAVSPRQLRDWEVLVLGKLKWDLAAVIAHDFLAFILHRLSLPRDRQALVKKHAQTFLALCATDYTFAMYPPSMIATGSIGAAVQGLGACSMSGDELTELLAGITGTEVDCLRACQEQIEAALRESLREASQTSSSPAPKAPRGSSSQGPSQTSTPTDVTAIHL
Chain of CDK6 (Q00534 whole entry): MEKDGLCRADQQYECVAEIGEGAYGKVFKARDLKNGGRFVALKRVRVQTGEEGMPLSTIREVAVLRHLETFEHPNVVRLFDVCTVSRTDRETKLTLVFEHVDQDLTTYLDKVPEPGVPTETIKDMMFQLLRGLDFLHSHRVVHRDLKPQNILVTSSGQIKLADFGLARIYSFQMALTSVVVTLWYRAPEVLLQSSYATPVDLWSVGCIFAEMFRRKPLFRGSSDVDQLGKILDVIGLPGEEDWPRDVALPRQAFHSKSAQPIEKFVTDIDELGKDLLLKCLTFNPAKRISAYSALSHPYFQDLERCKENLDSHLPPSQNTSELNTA
Chain of CDK6 (P30281 whole entry partner): as the sequence (P30281 whole entry partner) above

Consider `CCN1CCN(Cc2ccc(Nc3ncc(F)c(-c4ccc5c(c(C)nn5C5CCCC5)c4F)n3)nc2)CC1` [Compound I-45, N-(5-(4-ethylpiperazine-1-methyl)-pyridin-2-yl)-5-fluoro-4-(1-cyclopentyl-3-methyl-4-fluoro-1H-indazol-5-yl)pyrimidin-2-amine], for which the half-maximal inhibitory concentration (IC50) at CDK4 and at CDK6 was 0.02 to 0.1 µM in each case.
As to `Cc1c2ccc(-c3nc(Nc4ccc(N5CCNCC5)cn4)ncc3F)cc2nn1C` [Compound I-5, N-(5-(piperazin-1-yl)-pyridin-2-yl)-5-fluoro-4-(2,3-dimethyl-2H-indazol-6-yl)pyrimidin-2-amine], the half-inhibitory concentration (IC50) on CDK4 and at CDK6 was no more than 0.02 µM in each case.
Take `CC(=O)c1cn(C2CCCCCC2)c2ccc(-c3nc(Nc4ccc(CN5CCN(C6CCCC6)CC5)cn4)ncc3F)cc12` [Compound I-20, N-(5-(4-cyclopentylpiperazin-1-methyl)-pyridin-2-yl)-5-fluoro-4-(1-cycloheptyl-3-acetyl-1H-indol-5-yl)pyrimidin-2-amine]: the IC50 on CDK4 and at CDK6 was no more than 0.02 µM throughout.
With `CC(=O)c1nc2cnc(-c3nc(Nc4ccc(CN5CCN(C)CC5)cn4)ncc3F)nc2n1C(C)C` [Compound I-38, N-(5-(4-methylpiperazine-1-methyl)-pyridin-2-yl)-5-fluoro-4-(9-isopropyl-8-acetyl-9H-purin-2-yl)pyrimidin-2-amine], the half-inhibitory concentration (IC50) at CDK4 and on CDK6 was no more than 0.02 µM each time.
For `CCN1CCN(Cc2ccc(Nc3ncc(F)c(-c4ccc5nnc(C(F)(F)F)n5c4)n3)nc2)CC1` [Compound I-33, N-(5-(4-ethylpiperazine-1-methyl)-pyridin-2-yl)-5-fluoro-4-(3-trifluoromethyl-[1,2,4]triazolo[4,3-a]pyridin-6-yl)pyrimidin-2-amine], the half-maximal inhibitory concentration (IC50) at CDK4 and at CDK6 was no more than 0.02 µM throughout.
As to `CCN1CCN(Cc2ccc(Nc3ncc(F)c(-c4ncnc5c4c(C#N)cn5C)n3)nc2)CC1` [Compound I-42, N-(5-(4-ethylpiperazine-1-methyl)-pyridin-2-yl)-5-fluoro-4-(5-cyano-7-methyl-7H-pyrrolo[2,3-d]pyrimidin-4-yl)pyrimidin-2-amine], the 50% inhibitory concentration (IC50) is no more than 0.02 µM at CDK4 and 0.02 to 0.1 µM at CDK6.
For `Cc1c(C(F)(F)F)c2cc(-c3ccnc(Nc4ccc(CN5CCN(C(C)C)CC5)cn4)n3)ccc2n1C` [Compound I-16, N-(5-(4-isopropylpiperazin-1-methyl)-pyridin-2-yl)-4-(1,2-dimethyl-3-trifluoromethyl-1H-indol-5-yl)pyrimidin-2-amine], the half-inhibitory concentration (IC50) on CDK4 and on CDK6 was no more than 0.02 µM in each case.
As for `CC(C)n1c(C(=O)N(C)C)c(F)c2c(-c3nc(Nc4ccc(N5CCNCC5)cn4)ncc3F)ncnc21` [Compound I-10, N-(5-(piperazin-1-yl)-pyridin-2-yl)-5-fluoro-4-(5-fluoro-6-formic acid diformamido-7-isopropyl-7H-pyrrolo[2,3-d]pyrimidin-4-yl)pyrimidin-2-amine], the IC50 on CDK4 was no more than 0.02 µM; at CDK6, 0.02 to 0.1 µM.
`CC(C)n1c(C(=O)N(C)C)cc2nc(-c3nc(Nc4ccc(N5CCNCC5)cn4)ncc3F)ccc21` [Compound I-25, N-(5-(piperazin-1-yl)-pyridin-2-yl)-5-fluoro-4-(1-isopropyl-2-formic acid diformamido-1H-4-azaindol-5-yl)pyrimidin-2-amine]: the half-maximal inhibitory concentration (IC50) at CDK4 and at CDK6 was no more than 0.02 µM throughout.
On to `Cc1nc2cnc(-c3nc(Nc4ccc(N5CCNCC5)cn4)ncc3F)nc2n1C(C)C` [Compound I-8, N-(5-(piperazin-1-yl)-pyridin-2-yl)-5-fluoro-4-(9-isopropyl-8-methyl-9H-purin-2-yl)pyrimidin-2-amine], for which the IC50 on CDK4 was no more than 0.02 µM; on CDK6 it was 0.02 to 0.1 µM.
Regarding `CCN1CCN(Cc2ccc(Nc3ncc(F)c(-c4ccc5c(c4)c(C(C)=O)cn5C4CCCC4)n3)nc2)CC1` [Compound I-4, N-(5-(4-ethylpiperazine-1-methyl)-pyridin-2-yl)-5-fluoro-4-(1-cyclopentyl-3-acetyl-1H-indol-5-yl)pyrimidin-2-amine], the 50% inhibitory concentration (IC50) was no more than 0.02 µM on CDK4 and 0.02 to 0.1 µM at CDK6.
